Test results as given in US8952024B2, “Herbicidal pyrimidone derivatives” (E I du Pont de Nemours and Company, priority 2009, dated 2015).

Key:
Type in all cases: in vivo
[1] = system: velvetleaf (Abutilon theophrasti); test: Test B pre-/postemergence plant response
Summary of the method: (§1)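 Each species received compound formulated in non-phytotoxic solvent with surfactant, either at planting into a loam and sand blend or as a foliar spray once plants reached 2 to 18 cm in peat-based medium. Plants stayed in the greenhouse 13 to 15 days before visual evaluation against controls, scored 0 (no effect) to 100 (complete control).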

[2] = system: Italian ryegrass (Lolium multiflorum); test: Test B pre-/postemergence plant response
Summary of the method: as §1

[3] = system: morningglory (Ipomoea coccinea); test: Test B pre-/postemergence plant response
Summary of the method: as §1

[4] = system: yellow nutsedge (Cyperus esculentus); test: Test B pre-/postemergence plant response
Summary of the method: as §1

[5] = system: blackgrass (Alopecurus myosuroides); test: Test B pre-/postemergence plant response
Summary of the method: as §1

[6] = system: downy bromegrass (Bromus tectorum); test: Test B pre-/postemergence plant response
Summary of the method: as §1

[7] = system: wheat (Triticum aestivum); test: Test B pre-/postemergence plant response
Summary of the method: as §1

[8] = system: woolly cupgrass (Eriochloa villosa); test: Test B pre-/postemergence plant response
Summary of the method: as §1

[9] = system: goosegrass (Eleusine indica); test: Test B pre-/postemergence plant response
Summary of the method: as §1

[10] = system: large crabgrass (Digitaria sanguinalis); test: Test B pre-/postemergence plant response
Summary of the method: as §1

[11] = system: Surinam grass (Brachiaria decumbens); test: Test B pre-/postemergence plant response
Summary of the method: as §1

[12] = system: barnyardgrass (Echinochloa crus-galli); test: Test A pre-/postemergence plant response
Summary of the method: (§2)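 Injury was scored visually after roughly ten days against untreated controls, 0 = no effect, 100 = complete control. Test chemicals in a surfactant-containing non-phytotoxic solvent were sprayed either onto soil preemergence or onto one- to two-leaf, 2–10 cm plants postemergence.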

[13] = system: pigweed (Amaranthus retroflexus); test: Test A pre-/postemergence plant response
Summary of the method: as §2

[14] = 31 g ai/ha, postemergence, scale 0 to 100, 0 is no effect, 100 is complete control
[15] = Postemergence, 62 g ai/ha, scale 0 (no effect) to 100 (complete control), 13 to 15 days
[16] = Postemergence, 125 g ai/ha, visual rating after 13 to 15 days, scale 0 (no effect) to 100 (complete control)
[17] = Postemergence, 250 g ai/ha, scale 0 to 100 (0 no effect, 100 complete control)
[18] = Preemergence, 31 g ai/ha, scale 0 to 100 (0 no effect, 100 complete control)
[19] = Preemergence, 62 g ai/ha, scale 0 to 100, 0 no effect, 100 complete control
[20] = Preemergence, 125 g ai/ha, scale 0 to 100, 0 no effect, 100 complete control
[21] = 250 g ai/ha, Preemergence, 0 to 100 scale
[22] = Postemergence, 125 g ai/ha, visual injury, 0 to 100 scale (0 no effect, 100 complete control), approx. ten days
[23] = Postemergence, 500 g ai/ha, 0 to 100 scale, 0 = no effect, 100 = complete control, approx. ten days
[24] = Preemergence, 125 g ai/ha, 0 to 100 scale, 0 = no effect, 100 = complete control
[25] = Preemergence, 500 g ai/ha, visual injury, 0 to 100 scale (0 no effect, 100 complete control), approx. ten days

## O=C1CCCC(O)=C1C(=O)c1cnc(-c2cccs2)n(-c2ccccc2)c1=O [Compound 66]
[1]; [14]
  Plant response rating, Velvetleaf: 85
[1]; [15]
  Plant response rating, Velvetleaf: 90
[1]; [16]
  Plant response rating, Velvetleaf: 98
[1]; [17]
  Plant response rating, Velvetleaf: 100
[1]; [18]
  Plant response rating, Velvetleaf: 80
[1]; [19]
  Plant response rating, Velvetleaf: 80
[1]; [20]
  Plant response rating, Velvetleaf: 95
[2]; [14]
  Plant response rating, Ryegrass, Italian: 0
[2]; [15]
  Plant response rating, Ryegrass, Italian: 0
[2]; [16]
  Plant response rating, Ryegrass, Italian: 5
[2]; [17]
  Plant response rating, Ryegrass, Italian: 10
[2]; [18]
  Plant response rating, Ryegrass, Italian: 0
[2]; [19]
  Plant response rating, Ryegrass, Italian: 0
[2]; [20]
  Plant response rating, Ryegrass, Italian: 0
[3]; [14]
  Plant response rating, Morningglory: 98
[3]; [15]
  Plant response rating, Morningglory: 100
[3]; [16]
  Plant response rating, Morningglory: 100
[3]; [17]
  Plant response rating, Morningglory: 100
[3]; [18]
  Plant response rating, Morningglory: 0
[3]; [19]
  Plant response rating, Morningglory: 20
[3]; [20]
  Plant response rating, Morningglory: 25
[4]; [14]
  Plant response rating, Nutsedge, Yellow: 25
[4]; [15]
  Plant response rating, Nutsedge, Yellow: 45
[4]; [16]
  Plant response rating, Nutsedge, Yellow: 65
[4]; [17]
  Plant response rating, Nutsedge, Yellow: 70
[4]; [18]
  Plant response rating, Nutsedge, Yellow: 10
[4]; [19]
  Plant response rating, Nutsedge, Yellow: 30
[4]; [20]
  Plant response rating, Nutsedge, Yellow: 85
[5]; [14]
  Plant response rating, Blackgrass: 5
[5]; [21]
  Plant response rating, Blackgrass: 5
[5]; [15]
  Plant response rating, Blackgrass: 10
[5]; [16]
  Plant response rating, Blackgrass: 10
[5]; [17]
  Plant response rating, Blackgrass: 15
[5]; [18]
  Plant response rating, Blackgrass: 0
[5]; [19]
  Plant response rating, Blackgrass: 0
[5]; [20]
  Plant response rating, Blackgrass: 5
[6]; [14]
  Plant response rating, Bromegrass, Downy: 5
[6]; [21]
  Plant response rating, Bromegrass, Downy: 0
[6]; [15]
  Plant response rating, Bromegrass, Downy: 10
[6]; [16]
  Plant response rating, Bromegrass, Downy: 20
[6]; [17]
  Plant response rating, Bromegrass, Downy: 25
[6]; [18]
  Plant response rating, Bromegrass, Downy: 0
[6]; [19]
  Plant response rating, Bromegrass, Downy: 0
[6]; [20]
  Plant response rating, Bromegrass, Downy: 0
[7]; [14]
  Plant response rating, Wheat: 0
[7]; [16]
  Plant response rating, Wheat: 0
[7]; [17]
  Plant response rating, Wheat: 0
[7]; [18]
  Plant response rating, Wheat: 0
[7]; [19]
  Plant response rating, Wheat: 0
[7]; [20]
  Plant response rating, Wheat: 0
[8]; [14]
  Plant response rating, Cupgrass, Woolly: 40
[8]; [21]
  Plant response rating, Cupgrass, Woolly: 75
[8]; [15]
  Plant response rating, Cupgrass, Woolly: 40
[8]; [16]
  Plant response rating, Cupgrass, Woolly: 60
[8]; [17]
  Plant response rating, Cupgrass, Woolly: 75
[8]; [18]
  Plant response rating, Cupgrass, Woolly: 25
[8]; [19]
  Plant response rating, Cupgrass, Woolly: 40
[8]; [20]
  Plant response rating, Cupgrass, Woolly: 60
[9]; [14]
  Plant response rating, Goosegrass: 65
[9]; [21]
  Plant response rating, Goosegrass: 98
[9]; [15]
  Plant response rating, Goosegrass: 65
[9]; [16]
  Plant response rating, Goosegrass: 70
[9]; [17]
  Plant response rating, Goosegrass: 95
[9]; [18]
  Plant response rating, Goosegrass: 35
[9]; [19]
  Plant response rating, Goosegrass: 75
[9]; [20]
  Plant response rating, Goosegrass: 90
[10]; [14]
  Plant response rating, Crabgrass, Large: 50
[10]; [21]
  Plant response rating, Crabgrass, Large: 100
[10]; [15]
  Plant response rating, Crabgrass, Large: 55
[10]; [16]
  Plant response rating, Crabgrass, Large: 65
[10]; [17]
  Plant response rating, Crabgrass, Large: 70
[10]; [18]
  Plant response rating, Crabgrass, Large: 70
[10]; [19]
  Plant response rating, Crabgrass, Large: 85
[10]; [20]
  Plant response rating, Crabgrass, Large: 95
[11]; [14]
  Plant response rating, Surinam Grass: 65
[11]; [15]
  Plant response rating, Surinam Grass: 70
[11]; [16]
  Plant response rating, Surinam Grass: 85
[11]; [17]
  Plant response rating, Surinam Grass: 98
[11]; [18]
  Plant response rating, Surinam Grass: 35
[11]; [19]
  Plant response rating, Surinam Grass: 80
[11]; [20]
  Plant response rating, Surinam Grass: 90
[12]; [22]
  Barnyardgrass plant response rating: 80
[12]; [23]
  Plant response rating, Barnyardgrass: 90
[12]; [24]
  Plant response rating, Barnyardgrass: 20
[12]; [25]
  Plant response rating, Barnyardgrass: 70
[13]; [22]
  Pigweed plant response rating: 100
[13]; [23]
  Plant response rating, Pigweed: 100
[13]; [24]
  Plant response rating, Pigweed: 90
[13]; [25]
  Plant response rating, Pigweed: 100
